Measured values reported in US20240360135A1, “IMIDAZO[1,2-B]PYRIDAZINYL COMPOUNDS AND USES THEREOF” (Sumitomo Pharma Oncology, Inc., priority 2021, published 2024).

Assays:
PIM2 = target: T1, PIM2 (Homo sapiens, UniProt Q9P1W9); test: RBC HotSpot kinase inhibition assay, PIM2; assay type: biochemical
T1 construct: purchased Invitrogen PR6347B
Description: (§1) Reagents. Base Reaction Buffer: 20 mM Hepes (pH 7.5), 10 mM MgCl2, 1 mM EGTA, 0.01% Brij35, 0.02 mg/ml BSA, 0.1 mM Na3VO4, 2 mM DTT, 1% DMSO. The following kinases were used in the assay at the indicated concentrations:
(§2) The following substrates were used in combination with the indicated kinases in the assay at the indicated concentration:
(§3) No cofactors were added to any of the reactions.
(§4) • 1. Prepared substrate in freshly prepared Reaction Buffer. • 2. Delivered kinase into the substrate solution and gently mixed. • 3. Delivered test compound in 100% DMSO into the kinase reaction mixture by Acoustic technology (Echo550; nanoliter range), incubated for 20 minutes at room temperature. • 4. Delivered ^33P-ATP into the reaction mixture to initiate the reaction. • 5. Incubated for 2 hours at room temperature. • 6. Detected kinase activity by P81 filter-binding method.
(§5) The results of the RBC HotSpot™ kinase assay are set forth in Table 1, wherein “A” indicates an IC50<10 nM, “B” indicates an IC50 wherein 10 nM≤IC50≤100 nM, and “C” indicates an IC50>100 nM.

PIM1 = target: T2, PIM1 (Homo sapiens, UniProt P11309); test: RBC HotSpot kinase inhibition assay, PIM1; assay type: biochemical
T2 construct: purchased Invitrogen PV3503
T2 sequence (P11309 whole entry): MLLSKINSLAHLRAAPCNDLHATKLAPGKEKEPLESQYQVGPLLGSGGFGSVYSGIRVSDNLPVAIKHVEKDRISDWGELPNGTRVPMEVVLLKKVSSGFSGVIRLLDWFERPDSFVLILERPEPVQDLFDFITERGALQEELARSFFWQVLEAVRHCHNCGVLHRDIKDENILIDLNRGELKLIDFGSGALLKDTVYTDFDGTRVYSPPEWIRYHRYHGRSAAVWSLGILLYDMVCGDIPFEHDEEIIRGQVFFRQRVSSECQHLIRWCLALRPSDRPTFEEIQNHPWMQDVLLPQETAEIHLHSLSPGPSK
Description: as §1, §2, §3, §4, §5

PIM3 = target: T3, PIM3 (Homo sapiens, UniProt Q86V86); test: RBC HotSpot kinase inhibition assay, PIM3; assay type: biochemical
T3 construct: purchased Millipore 14-738
Description: as §1, §2, §3, §4, §5

A549 cells = test: Wound healing assay in A549 cells with TGF-β; assay type: cell-based; settings: Homo sapiens; wound healing, A549, 5 ng/ml TGF-β, 24 h; read-out: IC50 (μM) 24 h
Excerpt: Overview. Epithelial to mesenchymal transition (EMT) is used to describe epithelial cells losing their cell to cell adhesion and polarity while gaining migratory and invasive properties. The process of EMT is required for normal embryonic development and wound healing, but has also been implicated in fibrosis. In humans, TGF-β signaling is the main driver of EMT, and inhibiting this pathway may be beneficial in various diseases such as fibrosis. A wound healing assay was used to study cell migration and cell-cell interaction, and probe the EMT properties of lung epithelial cells (A549) in presence of Compound 2 or Compound 4.
Procedure. A549 cells (ATCC, CCL-185) were seeded into the ImageLock plate (Essen Bioscience) at 2×10^4 cells/well in 100 μL of complete growth media. Cells were incubated overnight at 37° C., 5% CO2. The next day, cells were washed with 1×PBS and Compound 2, Compound 4, DMSO control (±TGF-β) or galunisertib (TGF-β inhibitor used as positive control) was added to the cells in a serum-free F12K media (0.2% DMSO final, 10 μM starting concentration, 3-fold dilution, 8-doses) in presence of 5 ng/ml TGF-β. Cells were incubated for 48 hours (until they reached confluency) at 37° C., 5% CO2. Wounds were simultaneously created using a WoundMaker™ (Essen Bioscience). Debris and non-attached cells were removed by gently washing once with F12K.
Test compound or control compound and TGF-β were added to the cells in F12K+10% FBS as previously described. The ImageLock plate was put into IncuCyteS3 instrument installed inside a 5% CO2 incubator. The plate was allowed to equilibrate in the IncuCyteS3 instrument for 15 minutes prior to scheduling the first scan and data recording. The plate was incubated for 72 hours at 37° C., and wound closure was recorded in real time with the IncuCyte S3 imaging system. Percentage of relative wound density was quantitatively calculated by the IncuCyte software.

mouse psoriasis models = settings: cited from earlier work

T1 sequence (Q9P1W9 whole entry): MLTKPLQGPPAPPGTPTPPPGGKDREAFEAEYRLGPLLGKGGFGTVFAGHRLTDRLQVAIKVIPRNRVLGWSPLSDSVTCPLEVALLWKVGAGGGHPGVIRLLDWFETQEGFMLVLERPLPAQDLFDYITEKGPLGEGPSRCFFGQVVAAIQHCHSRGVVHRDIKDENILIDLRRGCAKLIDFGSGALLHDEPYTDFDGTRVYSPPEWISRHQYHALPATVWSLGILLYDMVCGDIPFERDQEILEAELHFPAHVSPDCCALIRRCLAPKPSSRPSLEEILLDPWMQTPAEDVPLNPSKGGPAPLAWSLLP

Row | SMILES | IC50 (PIM2) [µM] | IC50 (PIM1) [µM] | IC50 (PIM3) [µM] | IC50 (A549 cells) [µM] | epidermal thickening (mouse psoriasis models) | vascularization (mouse psoriasis models)
1 | CCc1cc(-c2cnc3ccc(NC45CCC(O)(CC4)C5)nn23)n[nH]1 [Compound 7, 4-((3-(5-ethyl-1H-pyrazol-3-yl)imidazo[1,2-b]pyridazin-6-yl)amino)bicyclo[2.2.1]heptan-1-ol] | > 0.1 | 0.01 to 0.1 | 0.01 to 0.1 | – | – | –
2 | Cc1cccc(-c2nn3c(c2-c2ccnc4ccc(C(N)=O)cc24)CCC3)n1 [Galunisertib, galunisertib, reference compound] | – | – | – | > 10 | – | –
3 | CN1CCC(CNc2ccc3ncc(-c4cccc(OC(F)(F)F)c4)n3n2)CC1 [SGI-1776] | – | – | – | – | partial reduction | partial reduction

Now from value to compound, other results behind:

Row | IC50 (PIM2) [µM] | IC50 (PIM1) [µM] | IC50 (PIM3) [µM] | SMILES | IC50 (A549 cells) [µM] | epidermal thickening (mouse psoriasis models) | vascularization (mouse psoriasis models)
4 | > 0.1 | > 0.1 | > 0.1 | Cc1cc(-c2cnc3ccc(NC45CCC(O)(CC4)C5)nn23)n[nH]1 [Compound 1, 4-((3-(5-methyl-1H-pyrazol-3-yl)imidazo[1,2-b]pyridazin-6-yl)amino)bicyclo[2.2.1]heptan-1-ol] | – | – | –
5 | > 0.1 | 0.01 to 0.1 | 0.01 to 0.1 | CCc1cc(-c2cnc3ccc(NC45CCC(O)(CC4)C5)nn23)c[nH]1 [Compound 3, 4-((3-(5-ethyl-1H-pyrrol-3-yl)imidazo[1,2-b]pyridazin-6-yl)amino)bicyclo[2.2.1]heptan-1-ol] | – | – | –
6 | > 0.1 | 0.01 to 0.1 | 0.01 to 0.1 | OC12CCC(Nc3ccc4ncc(-c5cc(C6CC6)[nH]n5)n4n3)(CC1)C2 [Compound 5, 4-((3-(5-cyclopropyl-1H-pyrazol-3-yl)imidazo[1,2-b]pyridazin-6-yl)amino)bicyclo[2.2.1]heptan-1-ol] | – | – | –
7 | > 0.1 | < 0.01 | < 0.01 | CCc1cc(-c2cnc3ccc(NC45CCC(C(C)(C)O)(CC4)CC5)nn23)n[nH]1 [Compound 6, 2-(4-((3-(5-ethyl-1H-pyrazol-3-yl)imidazo[1,2-b]pyridazin-6-yl)amino)bicyclo[2.2.2]octan-1-yl)propan-2-ol] | – | – | –
